Laboratory results from patent US8735375B2, “Therapeutic compositions” (Leo Laboratories Limited, priority 2005, dated 2014).

Assay: Stability of I3A isoforms in the assay solvent systems over 72 h
Assay type: physicochemical
Protocol: The stability of […] isoforms 'a', 'b' and 'c' in the three sample systems over 72 h (equivalent to the maximum possible length of time the samples might be held in the autosampler during a long HPLC analytical run) was confirmed as follows. Standards of the three isoforms of […] The standards were then each divided into three equal volumes and placed at 2-8° C., room temperature and 40° C. for 72 h and were then again analysed by HPLC.

[1] = Acetonitrile/Citrate buffer (pH 3), 72 h 2-8° C.
[2] = Acetonitrile/Citrate buffer (pH 3), 72 h 40° C.
[3] = Acetonitrile/Citrate buffer (pH 3), 72 h RTP
[4] = Acetonitrile/Citrate buffer (pH 3), Time 0 h
[5] = Acetonitrile/Sodium acetate buffer (pH 4.5), 72 h 2-8° C.
[6] = Acetonitrile/Sodium acetate buffer (pH 4.5), 72 h 40° C.
[7] = Acetonitrile/Sodium acetate buffer (pH 4.5), 72 h RTP
[8] = Acetonitrile/Sodium acetate buffer (pH 4.5), Time 0 h

Row | Structure (SMILES) | % ‘a’ (Acetonitrile, 72 h 2-8° C.) | % ‘b’ (Acetonitrile, 72 h 2-8° C.) | % ‘c’ (Acetonitrile, 72 h 2-8° C.) | % ‘a’ (Acetonitrile, 72 h 40° C.) | % ‘b’ (Acetonitrile, 72 h 40° C.) | % ‘c’ (Acetonitrile, 72 h 40° C.) | % ‘a’ (Acetonitrile, 72 h RTP) | % ‘b’ (Acetonitrile, 72 h RTP) | % ‘c’ (Acetonitrile, 72 h RTP) | % ‘a’ (Acetonitrile, Time 0 h) | % ‘b’ (Acetonitrile, Time 0 h) | % ‘c’ (Acetonitrile, Time 0 h) | % ‘a’ [1] | % ‘b’ [1] | % ‘c’ [1] | % ‘a’ [2] | % ‘b’ [2] | % ‘c’ [2] | % ‘a’ [3] | % ‘b’ [3] | also measured
1 | CC=C(C)C(=O)OC1C(CO)=CC2C(=O)C3(C=C(C)C(O)C13O)C(C)CC1C2C1(C)C (stereo not drawn) [Isoform ‘a’, ingenol-5-angelate] | 90.63% | 5.71% | 2.55% | 16.36% | 47.01% | 35.74% | 86.58% | 7.8% | 3.65% | 96.82% | 2.24% | 0.29% | 98.31% | 1.46% | 0% | 98.13% | 1.79% | 0% | 98.84% | 1.08% | % ‘c’ [3]: 0%; % ‘a’ [4]: 97.91%; % ‘b’ [4]: 1.63%; % ‘c’ [4]: 0%; % ‘a’ [5]: 96.47%; % ‘b’ [5]: 2.83%; % ‘c’ [5]: 0%; % ‘a’ [6]: 82.51%; % ‘b’ [6]: 16.62%; % ‘c’ [6]: 0%; % ‘a’ [7]: 95.25%; % ‘b’ [7]: 4.22%; % ‘c’ [7]: 0%; % ‘a’ [8]: 96.65%; % ‘b’ [8]: 2.16%; % ‘c’ [8]: 0.23%
2 | CC=C(C)C(=O)OCC1=CC2C(=O)C3(C=C(C)C(O)C3(O)C1O)C(C)CC1C2C1(C)C (stereo not drawn) [Isoform ‘c’, ingenol-20-angelate] | 1.62% | 0% | 96.69% | 0.6% | 0% | 97.09% | 1.55% | 0.27% | 97.19% | 1.28% | 0.41% | 97.30% | 0.87% | 0.16% | 98.84% | 0% | 0% | 98.7% | 0.53% | 0% | % ‘c’ [3]: 99.24%; % ‘a’ [4]: 1.12%; % ‘b’ [4]: 0.20%; % ‘c’ [4]: 98.41%; % ‘a’ [5]: 1.41%; % ‘b’ [5]: 0.27%; % ‘c’ [5]: 97.17%; % ‘a’ [6]: 0%; % ‘b’ [6]: 0%; % ‘c’ [6]: 97.75%; % ‘a’ [7]: 0.83%; % ‘b’ [7]: 0%; % ‘c’ [7]: 97.97%; % ‘a’ [8]: 1.34%; % ‘b’ [8]: 0.45%; % ‘c’ [8]: 97.02%
